This note sets out measurements from PubChem BioAssay (NCI).

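Test compounds were applied to cells in 96-well plates for 48 hours at 5 doses. TGI: total growth inhibition.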 Where only a bound is given, the exact number is not on record here.

Test systems include ACHN renal; COLO 205 colon; DU-145 prostate; HOP-62 NSCLC; MDA-MB-231 breast; MDA-MB-435; NCI/ADR-RES ovarian; OVCAR-4 ovarian; OVCAR-5 ovarian; RPMI-8226 leukemia; SF-268 CNS; SF-539 CNS; SNB-19 CNS.
Holding throughout (assay): NCI-60 cell line screen, 48 h

For the compound `O=[N+]([O-])c1ccc2[nH]c(=S)[nH]c(=S)c2c1`, the TGI in the assay with ACHN renal, with COLO 205 colon, in the assay with DU-145 prostate, in the assay on HOP-62 NSCLC, with MDA-MB-231 breast and in the assay with MDA-MB-435 was more than 100 µM each time. Moreover, the TGI in the assay on NCI/ADR-RES ovarian, in the assay with OVCAR-4 ovarian, in the assay with OVCAR-5 ovarian, in the assay on RPMI-8226 leukemia, in the assay with SF-268 CNS and with SF-539 CNS was more than 100 µM throughout. This compound had a TGI in the assay with SNB-19 CNS of more than 100 µM.

On to `Fc1ccc2c(c1)nc1n2C(c2c(Cl)cccc2Cl)SC1` (stereo not given), for which the TGI with ACHN renal was determined as 30.7 µM; with COLO 205 colon, 32.9 µM; in the assay on DU-145 prostate, 30.6 µM; in the assay on HOP-62 NSCLC, 29.2 µM; in the assay with MDA-MB-231 breast, 30.5 µM; in the assay on MDA-MB-435, 25 µM. The TGI came out at 27.7 µM with NCI/ADR-RES ovarian; 29.7 µM with OVCAR-4 ovarian; 28.9 µM in the assay on OVCAR-5 ovarian; 87.7 µM in the assay on RPMI-8226 leukemia; 29.6 µM in the assay on SF-268 CNS; 34.8 µM in the assay with SF-539 CNS. In the assay on SNB-19 CNS, this compound displayed a TGI of 27.1 µM.

As for `C=CCn1c(N)c(C#N)c(C#N)c1-c1ccccc1`, the TGI in the assay on ACHN renal, in the assay with COLO 205 colon, in the assay with DU-145 prostate, in the assay on HOP-62 NSCLC, in the assay with MDA-MB-231 breast and with MDA-MB-435 was more than 100 µM throughout. In addition, the TGI in the assay with NCI/ADR-RES ovarian, in the assay with OVCAR-4 ovarian, with OVCAR-5 ovarian, with RPMI-8226 leukemia, in the assay on SF-268 CNS and with SF-539 CNS was more than 100 µM in each case. This compound also returned a TGI in the assay on SNB-19 CNS of more than 100 µM.

As to `N#Cc1n[nH]n(-c2ccc(Br)cc2)c1=O`, the TGI with ACHN renal, in the assay on COLO 205 colon, with DU-145 prostate, in the assay with HOP-62 NSCLC, with MDA-MB-231 breast and in the assay on MDA-MB-435 was more than 100 µM each time. Further, the TGI with NCI/ADR-RES ovarian, in the assay with OVCAR-4 ovarian, in the assay on OVCAR-5 ovarian, in the assay on RPMI-8226 leukemia, in the assay with SF-268 CNS and with SF-539 CNS was more than 100 µM in each case. This compound registered a TGI in the assay on SNB-19 CNS of more than 100 µM.

With `O=c1[nH]cnc2c1cnn2Cc1cn(CCCCO)nn1`, the TGI in the assay on ACHN renal, in the assay with COLO 205 colon, in the assay with DU-145 prostate, in the assay on HOP-62 NSCLC, in the assay on MDA-MB-231 breast and in the assay on MDA-MB-435 was more than 100 µM in each case. Further, the TGI in the assay on NCI/ADR-RES ovarian, in the assay with OVCAR-4 ovarian, with OVCAR-5 ovarian, with RPMI-8226 leukemia, in the assay on SF-268 CNS and in the assay with SF-539 CNS was more than 100 µM in each case. The TGI in the assay with SNB-19 CNS was more than 100 µM.

As to `[N-]=[N+]=Nc1c([N+](=O)[O-])c(=O)n(-c2ccccc2)c2ccccc12`, the TGI with ACHN renal was 85.5 µM; in the assay with COLO 205 colon, 42.3 µM; in the assay with DU-145 prostate, more than 100 µM; in the assay with HOP-62 NSCLC it was more than 100 µM; in the assay on MDA-MB-231 breast, 59.2 µM; in the assay on MDA-MB-435 it was 47 µM. The TGI with NCI/ADR-RES ovarian was 79.7 µM; with OVCAR-4 ovarian, 49.4 µM; in the assay with OVCAR-5 ovarian, more than 100 µM; with RPMI-8226 leukemia, 56.2 µM; in the assay with SF-268 CNS, 59.6 µM; in the assay on SF-539 CNS it was 47.1 µM. This compound had a TGI in the assay on SNB-19 CNS of more than 100 µM.

Take `CCN(CC)CCNc1ccc2nnn3c4ccc(OCCN(CC)CC)cc4c(=O)c1c23`: the TGI in the assay with ACHN renal is more than 100 µM; with COLO 205 colon it was more than 100 µM; with DU-145 prostate it was more than 100 µM; with HOP-62 NSCLC, 72.9 µM; in the assay on MDA-MB-231 breast, more than 100 µM; in the assay with MDA-MB-435 it was more than 100 µM. The TGI is more than 100 µM with NCI/ADR-RES ovarian; 41.3 µM in the assay with OVCAR-4 ovarian; more than 100 µM with OVCAR-5 ovarian; more than 100 µM in the assay on RPMI-8226 leukemia; more than 100 µM in the assay with SF-268 CNS; more than 100 µM in the assay on SF-539 CNS. In the assay with SNB-19 CNS, this compound had a TGI of more than 100 µM.

`Nc1ccc2c(c1)C(=O)N1CCC[C@H]1C(=O)N2`: the TGI with ACHN renal, in the assay on COLO 205 colon, with DU-145 prostate, in the assay with HOP-62 NSCLC, in the assay with MDA-MB-231 breast and with MDA-MB-435 was more than 100 µM in each case. The TGI in the assay on NCI/ADR-RES ovarian, in the assay with OVCAR-4 ovarian, in the assay with OVCAR-5 ovarian, in the assay on RPMI-8226 leukemia, in the assay on SF-268 CNS and in the assay with SF-539 CNS was more than 100 µM in each case. In the assay with SNB-19 CNS, this compound yielded a TGI of more than 100 µM.

As for `BrC1=C(Br)C2(SCCS2)[C@H]2C[C@@H]1c1ccccc12`, the TGI with ACHN renal, in the assay with COLO 205 colon, with DU-145 prostate, in the assay with HOP-62 NSCLC, in the assay on MDA-MB-231 breast and in the assay on MDA-MB-435 was more than 100 µM in each case. The TGI with NCI/ADR-RES ovarian, with OVCAR-4 ovarian, in the assay with OVCAR-5 ovarian, with RPMI-8226 leukemia, with SF-268 CNS and with SF-539 CNS was more than 100 µM throughout. Besides, the TGI in the assay with SNB-19 CNS is more than 100 µM.

In the case of `CCOC(=O)NC(Nc1ccc(C)cc1)(C(F)(F)F)C(F)(F)F`, the TGI with ACHN renal, in the assay on COLO 205 colon, in the assay with DU-145 prostate, in the assay with HOP-62 NSCLC, in the assay with MDA-MB-231 breast and with MDA-MB-435 was more than 100 µM throughout. Besides, the TGI in the assay on NCI/ADR-RES ovarian, with OVCAR-4 ovarian, in the assay on OVCAR-5 ovarian, with RPMI-8226 leukemia, in the assay on SF-268 CNS and in the assay with SF-539 CNS was more than 100 µM in each case. Also, in the assay with SNB-19 CNS, the TGI was more than 100 µM.
